From patent US20170253601A1, “Substituted Pyrrolidine Compounds” (EPIZYME, INC., priority 2014, published 2017) come the findings set out here.

This assay concerns the target T1, human SMYD3 (Homo sapiens, UniProt Q9H7B4).
T1 construct: Expressed full-length human His-tagged SMYD3 protein was purified from cell paste; His6 (cleaved yes); TEV and SUMO cleavage sites (cleaved yes); made in house; host or cells: E. coli BL21 codonplus RIL
T1 sequence (Q9H7B4 1-428): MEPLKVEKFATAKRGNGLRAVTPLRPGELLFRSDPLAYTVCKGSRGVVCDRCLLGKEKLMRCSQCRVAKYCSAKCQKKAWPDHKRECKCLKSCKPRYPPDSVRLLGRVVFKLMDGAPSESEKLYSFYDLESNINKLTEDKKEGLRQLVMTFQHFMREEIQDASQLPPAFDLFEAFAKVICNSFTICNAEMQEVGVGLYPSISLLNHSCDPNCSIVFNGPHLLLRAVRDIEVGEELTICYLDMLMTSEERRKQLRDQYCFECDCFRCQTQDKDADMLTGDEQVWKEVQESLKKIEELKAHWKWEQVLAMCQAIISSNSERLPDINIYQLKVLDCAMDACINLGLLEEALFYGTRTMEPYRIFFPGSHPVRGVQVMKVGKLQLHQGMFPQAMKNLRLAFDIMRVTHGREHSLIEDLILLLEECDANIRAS
Briefly: SMYD3 Biochemical Assay (3H-SAM, MEKK2 protein substrate, SPA). As to conditions: Table 1; average of n = 1 to n = 50; read-out: SMYD3 Biochem IC50. An excerpt:
S-adenosylmethionine (SAM), S-adenosylhomocysteine (SAH), Tris, Tween20, dimethylsulfoxide (DMSO), bovine skin gelatin (BSG), and Tris(2-carboxyethyl)phosphine hydrochloride solution (TCEP) were purchased from Sigma-Aldrich at the highest level of purity possible. ^3H-SAM was purchase from American Radiolabeled Chemicals with a specific activity of 80 Ci/mmol. 384-well opaque white OptiPlates and SPA beads (Perkin Elmer, catalog # RPNQ0013) were purchased from PerkinElmer.
N-terminally GST-tagged MEKK2 (MAP3K2) protein corresponding to reference sequence AAF63496.3 was purchased from Life Technologies (catalog # PV4010). This protein was expressed in High Five insect cells and purified to >85% purity. Protein identity was confirmed by MS/MS analysis after proteolytic digestion. The protein sequence used was:
Full-length human SMYD3 isoform 1 (BAB86333) was inserted into a modified pET21b plasmid containing a His6 tag and TEV and SUMO cleavage sites. Because two common variants of SMYD3 exist in the population, site directed mutagenesis was subsequently performed to change amino acid 13 from an asparagine to a lysine, resulting in plasmid pEPZ533. A lysine at position 13 conforms to the more commonly occurring sequence (NP_001161212).
E. coli (BL21 codonplus RIL strain, Stratagene) were transformed with plasmid pEPZ553 by mixing competent cells and plasmid DNA and incubating on ice for 30 minutes followed by heat shock at 42° C. for 1 minute and cooling on ice for 2 minutes. Transformed cells were grown and selected on LB agar with 100 μg/mL ampicillin and 17 μg/mL chloramphenicol at 37° C. overnight. A single clone was used to inoculate 200 mL of LB medium with 100 μg/mL ampicillin and 17 μg/mL chloramphenicol and incubated at 37° C. on an orbital shaker at 180 rpm. Once in log growth, the culture was diluted 1:100 into 2 L of LB medium and grown until OD600 was about 0.3 after which the culture was incubated at 15° C. and 160 rpm. Once OD600 reached about 0.4, IPTG was added to a final concentration of 0.1 mM and the cells were grown overnight at 15° C. and 160 rpm. Cells were harvested by centrifugation at 8000 rpm, for 4 minutes at 4° C. and stored at −80° C. for purification.
Expressed full-length human His-tagged SMYD3 protein was purified from cell paste by Nickel affinity chromatography after equilibration of the resin with Buffer A (25 mM Tris, 200 mM NaCl, 5% glycerol, 5 mM β-mercaptoethanol, pH7.8). The column was washed with Buffer B (Buffer A plus 20 mM imidazole) and His-tagged SMYD3 was eluted with Buffer C (Buffer A plus 300 mM imidazole). The His tag, TEV and SUMO cleavage sites were removed generating native SMYD3 by addition of ULP1 protein at a ratio of 1:200 (ULP1:SMYD3). Imidazole was removed by dialysis overnight in Buffer A. The dialyzed solution was applied to a second Nickel column and the native SMYD3 protein was collected from the column flow-through. The flow-through was dialyzed in Buffer D (25 mM Tris, 5% glycerol, 5 mM β-mercaptoethanol, 50 mM NaCl, pH7.8) and ULP1 was removed using a Q sepharose fast flow column. SMYD3 was eluted in Buffer A and further purified using an S200 size-exclusion column equilibrated with Buffer A. SMYD3 was concentrated to 2 mg/mL with a final purity of 89%.
The assays were all performed in a buffer consisting of 25 mM Tris-Cl pH 8.0, 1 mM TCEP, 0.005% BSG, and 0.005% Tween 20, prepared on the day of use. Compounds in 100% DMSO (1 ul) were spotted into a 384-well white opaque OptiPlate using a Bravo automated liquid handling platform outfitted with a 384-channel head (Agilent Technologies). DMSO (1 ul) was added to Columns 11, 12, 23, 24, rows A-H for the maximum signal control and 1 ul of SAH, a known product and inhibitor of SMYD3, was added to columns 11, 12, 23, 24, rows I-P for the minimum signal control. A cocktail (40 ul) containing the SMYD3 enzyme was added by Multidrop Combi (Thermo-Fisher). […]
On to `O=C(NC1CC(=O)N(c2ccccc2)C1)c1cc(C2CC2)on1` (centres unmarked) [compound 25, 5-cyclopropyl-N-(5-oxo-1-phenylpyrrolidin-3-yl)isoxazole-3-carboxamide], for which the IC50 worked out at 98.8 µM.
Under `C[C@H]1C[C@H](NC(=O)c2cc(C3CC3)on2)C(=O)N1c1cnn(C)c1` (racemic) [compound 20, (±)-trans 5-cyclopropyl-N-(5-methyl-1-(1-methyl-1H-pyrazol-4-yl)-2-oxopyrrolidin-3-yl)isoxazole-3-carboxamide] stands more than 200 µM; under `O=C(N[C@@H]1CCNC1)c1cc(C2CC2)on1` [compound 4, (R)-5-cyclopropyl-N-(pyrrolidin-3-yl)isoxazole-3-carboxamide], 83.7 µM; under `O=C(NC1CCN(Cc2ccccc2)C1=O)c1cc(C2CC2)on1` (centres unmarked) [compound 27, N-(1-benzyl-2-oxopyrrolidin-3-yl)-5-cyclopropylisoxazole-3-carboxamide], more than 200 µM.
On to `CN1C[C@H](NC(=O)c2cc(C3CC3)on2)[C@H](c2ccccc2)C1` (racemic) [compound 17, (±)-cis-5-cyclopropyl-N-((1-methyl-4-phenylpyrrolidin-3-yl)isoxazole-3-carboxamide], for which the IC50 is 56.2 µM.
Turning to `CN1C[C@H](NC(=O)c2cc(C3CC3)on2)[C@@H](c2ccccc2)C1` (racemic) [compound 18, (±)-trans-5-cyclopropyl-N-(1-methyl-4-phenylpyrrolidin-3-yl)isoxazole-3-carboxamide], the IC50 was determined as 50.4 µM.
Under `CC(C)N1CCC(NC(=O)c2cc(C3CC3)on2)C1c1ccc(F)c(F)c1` (centres unmarked) [compound 12, 5-cyclopropyl-N-(2-(3,4-difluorophenyl)-1-isopropylpyrrolidin-3-yl)isoxazole-3-carboxamide] stands 58.6 µM; under `CN1CCC(NC(=O)c2cc(C3CC3)on2)C1c1ccc(Cl)c(F)c1` (centres unmarked) [compound 7, N-(2-(4-chloro-3-fluorophenyl)-1-methylpyrrolidin-3-yl)-5-cyclo-propylisoxazole-3-carboxamide], 51.5 µM; under `NCCCS(=O)(=O)N1CC[C@@H](NC(=O)c2cc(C3CC3)on2)C1` [compound 34, (R)-N-(1-((3-amino-propyl)sulfonyl)pyrrolidin-3-yl)-5-cyclopropyl-isoxazole-3-carboxamide], 5.8 µM.
As for `CC1CC(NC(=O)c2cc(C3CC3)on2)C(=O)N1c1ccccc1` (centres unmarked) [compound 11, 5-cyclopropyl-N-(5-methyl-2-oxo-1-phenylpyrrolidin-3-yl)isoxazole-3-carboxamide], the figure is 78.1 µM.
Consider `CN1CCC(NC(=O)c2cc(C3CC3)on2)C1` (centres unmarked) [compound 29, 5-cyclopropyl-N-(1-methylpyrrolidin-3-yl)isoxazole-3-carboxamide], for which the IC50 was 84 µM.
Under `CC(=O)Nc1ccc(S(=O)(=O)N2CC[C@@H](NC(=O)c3cc(C4CC4)on3)C2)cc1` [compound 2, (R)-N-(1-((4-acetamido-phenyl)sulfonyl)pyrrolidin-3-yl)-5-cyclopropyl-isoxazole-3-carboxamide] stands more than 100 µM; under `CC1CC(NC(=O)c2cc(C3CC3)on2)CN1Cc1ccccc1` (centres unmarked) [compound 21, N-(1-benzyl-5-methylpyrrolidin-3-yl)-5-cyclopropyl-isoxazole-3-carboxamide], 54.1 µM; under `N[C@H]1CC[C@H](C(=O)N2CC[C@H](NC(=O)c3cc(C4CC4)on3)C2)CC1` [compound 33, N-((S)-1-((1r,4s)-4-aminocyclohexane-1-carbonyl)pyrrolidin-3-yl)-5-cyclopropyl-isoxazole-3-carboxamide], 3.25 µM.
Under `COc1cccc(C2C(NC(=O)c3cc(C4CC4)on3)CCN2C2CC2)c1` (centres unmarked) [compound 16, 5-cyclopropyl-N-(1-cyclopropyl-2-(3-methoxy-phenyl)pyrrolidin-3-yl)isoxazole-3-carboxamide] stands 77.4 µM.
As for `CN1CCC(NC(=O)c2cc(C3CC3)on2)C1c1ccc(F)cc1` (centres unmarked) [compound 13, 5-cyclopropyl-N-(2-(4-fluorophenyl)-1-methylpyrrolidin-3-yl)isoxazole-3-carboxamide], the figure is 51.9 µM.
For the compound `CC(=O)Nc1ccc(S(=O)(=O)N2CC[C@H](NC(=O)c3cc(C4CC4)on3)C2)cc1` [compound 1, (S)-N-(1-((4-acetamido-phenyl)sulfonyl)pyrrolidin-3-yl)-5-cyclopropyl-isoxazole-3-carboxamide], the IC50 was more than 100 µM.
`Cn1ccc(N2CCC(NC(=O)c3cc(C4CC4)on3)C2=O)n1` (centres unmarked) [compound 15, 5-cyclopropyl-N-(1-(1-methyl-1H-pyrazol-3-yl)-2-oxopyrrolidin-3-yl)isoxazole-3-carboxamide]: the IC50 turned out to be 158 µM.
As for `CC1CC(NC(=O)c2cc(C3CC3)on2)CN1c1ccccc1` (centres unmarked) [compound 10, 5-cyclopropyl-N-(5-methyl-1-phenylpyrrolidin-3-yl)isoxazole-3-carboxamide], the figure is 53.5 µM; as for `NCCCC(=O)N1CC[C@H](NC(=O)c2cc(C3CC3)on2)C1` [compound 32, (S)-N-(1-(4-amino-butanoyl)pyrrolidin-3-yl)-5-cyclopropyl-isoxazole-3-carboxamide], more than 10 µM; as for `NCCCC(=O)N1CC[C@@H](NC(=O)c2cc(C3CC3)on2)C1` [compound 30, (R)-N-(1-(4-amino-butanoyl)pyrrolidin-3-yl)-5-cyclopropyl-isoxazole-3-carboxamide], more than 10 µM.
As for `O=C(NC1CC(=O)N(Cc2ccccc2)C1)c1cc(C2CC2)on1` (centres unmarked) [compound 26, N-(1-benzyl-5-oxopyrrolidin-3-yl)-5-cyclopropylisoxazole-3-carboxamide], the figure is 88.4 µM.
On to `O=C(N[C@H]1CCNC1)c1cc(C2CC2)on1` [compound 3, (S)-5-cyclopropyl-N-(pyrrolidin-3-yl)isoxazole-3-carboxamide], for which the IC50 was 80.3 µM.
In the case of `CC(c1ccccc1)N1CCC(NC(=O)c2cc(C3CC3)on2)C1` (centres unmarked) [compound 24, 5-cyclopropyl-N-(1-(1-phenylethyl)pyrrolidin-3-yl)isoxazole-3-carboxamide], the IC50 stood at 38.4 µM.
Under `N[C@H]1CC[C@H](C(=O)N2CC[C@@H](NC(=O)c3cc(C4CC4)on3)C2)CC1` [compound 31, N-((R)-1-((1r,4r)-4-aminocyclohexane-1-carbonyl)pyrrolidin-3-yl)-5-cyclopropyl-isoxazole-3-carboxamide] stands more than 10 µM.
As for `CN1C(=O)CC(NC(=O)c2cc(C3CC3)on2)C1c1ccc(F)cc1` (centres unmarked) [compound 14, 5-cyclopropyl-N-(2-(4-fluorophenyl)-1-methyl-5-oxopyrrolidin-3-yl)isoxazole-3-carboxamide], the figure is 58.5 µM.
